This passage reports IC50 results from patent publication US9249129B2, “Morpholino substituted urea derivatives as mTOR inhibitors” (CELLZOME LIMITED, priority 2010, dated 2016).

One test concerns the target T1, PI3Kγ (Homo sapiens, UniProt P48736).
T1 construct: endogenous in cells; host or cells: Jurkat cells (ATCC TIB-152) lysate, the only lysate described
Briefly: kinobeads assay, PI3K gamma (dot blot detection). The conditions noted are these: Table 4, read-out: Inhibition values (IC50) PI3Kg. It counts as binding.

Test [1] concerns Akt serine-473 phosphorylation in HEK293T/17 cells. Kind of test: In vitro phospho-Akt cellular assay (pAkt S473). It is filed as cell-based. As to conditions: Homo sapiens, Table 6, 2 hours, Akt Ser473, read-out: pAKT (Phospho-Akt cell assay data, activity level). An excerpt: In Vitro Phospho-S6 and Phospho-Akt Cellular Assay
Activation of mTOR signaling results in phosphorylation of several downstream targets. In cells, mTOR exists in two different protein complexes. The mTOR Complex-1 (mTORC1) phosphorylates and activates S6 Kinase 1 (S6K1) and S6 Kinase 2 (S6K2) (also known as p70S6K) which then phosphorylate S6 Ribosomal Protein (S6RP) (also known as RPS6). S6RP is phosphorylated on serine 235, serine 236, serine 240 and serine 244 by both pS6K1 and pS6K2. The mTOR Complex-2 (mTORC2) phosphorylates AKT on serine 473 which activates the AKT signaling pathway.
The assay measures a test compound's inhibition of S6RP serine-240/244 phosphorylation and inhibition of Akt serine-473 phosphorylation in human embryonic kidney derived HEK293T/17 cells (ATCC CRL-11268).
The HEK293T/17 cell line is maintained in DMEM media (Invitrogen catalogue number 41965-039) supplemented with 10% FCS at 37° C. in a 5% CO2 humidified incubator.
Cells are seeded in 96-well plates at 40,000 cells/well (pS6RP S240/244 assay) or 80,000 cells/well (pAkt 5473 assay) in 90 μl growth media (DMEM, 2% FCS). Plates are incubated for 1 hour in a humidified incubator to allow the cells to adhere. Cells are treated with 8 concentrations of test compounds or DMSO alone for controls (final DMSO concentration 0.1%) and incubated at 37° C. for 2 hours. Then 20 μl of 5× concentrated lysis buffer (750 mM NaCl, 100 mM Tris pH7.4, 5 mM EDTA, 5 mM EGTA, 5% Triton X-100) is added, plates are sealed and incubated for 15 minutes at 4° C. with gentle shaking. After cell lysis, 25 μl cell lysate is transferred to a MesoScale plate coated with an antibody to pS6RP Ser240/244 (MesoScale Discovery K150DGD-3) or an antibody to pAkt Ser 473 (MesoScale Discovery K151DGD-3). Plates have been blocked before by incubation with 150 μl MesoScale Discovery Blocking Solution-A for 1 hour at room temperature followed by washing with 150 μl 1× Tris wash buffer per well. After the transfer of the cell lysate to the MSD plate, the pS6RP (or pAkt) protein is captured on the coated antibody by incubation at room temperature for 1 hour with gentle shaking. After the capture step the plate is washed three times with 150 μl of 1× Tris wash buffer per well. Then 25 μl detection antibody conjugated with a Sulfo-Tag is added and incubated for 1 hour at room temperature with gentle shaking. Subsequently the antibody solution is removed and the plate is washed 3 times with 150 μl 1× Tris wash buffer per well and 150 μl Read buffer is added. The plates are analysed on a MSD 2400 Plate Reader (MesoScale Discovery). Data analysis is performed using nonlinear regression for a sigmoidal dose-response with a variable slope.

Test [2] has as its target T2, kinases (kinome) (Homo sapiens, UniProt Q96RR4).
T2 construct: determined in kinobeads assays with mass spectrometry detection of kinases as described previously; endogenous in cells; host or cells: cell lysate
Briefly: kinobeads assay with mass spectrometry detection of kinases (kinase selectivity profile). It counts as binding. As to conditions: CaMKK2 (Other), IPI00290239. The source says:
(§1) The protein kinase complement of the human genome (the kinome) was described previously (Manning et al., 2002. Science 298(5600):1912-1934). Sequence accession numbers are defined by the International Protein Index (IPI) (Kersey et al., 2004. Proteomics 4(7):1985-1988).

In test [3] the target is T3, kinases (kinome) (Homo sapiens, UniProt Q9UHD2).
T3 construct: determined in kinobeads assays with mass spectrometry detection of kinases as described previously; endogenous in cells; host or cells: cell lysate
T3 sequence (Q9UHD2 1-729): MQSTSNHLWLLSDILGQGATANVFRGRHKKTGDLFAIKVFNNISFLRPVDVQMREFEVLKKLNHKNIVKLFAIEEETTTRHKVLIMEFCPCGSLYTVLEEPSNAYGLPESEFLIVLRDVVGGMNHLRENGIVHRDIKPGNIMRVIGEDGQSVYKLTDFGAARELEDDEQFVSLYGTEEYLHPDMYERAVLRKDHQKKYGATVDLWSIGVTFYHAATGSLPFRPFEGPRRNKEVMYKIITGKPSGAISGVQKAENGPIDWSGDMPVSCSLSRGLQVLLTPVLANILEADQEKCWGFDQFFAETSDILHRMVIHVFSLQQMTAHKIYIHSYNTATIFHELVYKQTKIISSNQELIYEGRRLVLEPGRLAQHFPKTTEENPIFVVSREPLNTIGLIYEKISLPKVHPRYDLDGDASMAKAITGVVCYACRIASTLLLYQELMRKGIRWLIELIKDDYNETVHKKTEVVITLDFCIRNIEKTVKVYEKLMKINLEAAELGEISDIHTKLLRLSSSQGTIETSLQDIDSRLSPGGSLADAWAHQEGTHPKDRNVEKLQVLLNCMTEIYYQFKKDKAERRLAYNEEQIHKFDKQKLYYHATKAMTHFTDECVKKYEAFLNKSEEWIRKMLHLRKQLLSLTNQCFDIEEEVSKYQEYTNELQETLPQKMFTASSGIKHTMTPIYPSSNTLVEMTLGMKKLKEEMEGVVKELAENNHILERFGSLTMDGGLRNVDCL
The description is as above. It is filed as binding. As to conditions: TBK1 (Other), IPI00293613.
Source text: as §1

Test [4] has as its target T4, kinases (kinome) (Homo sapiens, UniProt Q9Y4K4).
T4 construct: determined in kinobeads assays with mass spectrometry detection of kinases as described previously; endogenous in cells; host or cells: cell lysate
The test is described as above. The conditions noted are these: KHS1 (STE), IPI00294842. It counts as binding.
Source text: as §1

Test [5] deals with T5, kinases (kinome) (Homo sapiens, UniProt P53667).
T5 construct: determined in kinobeads assays with mass spectrometry detection of kinases as described previously; endogenous in cells; host or cells: cell lysate
The test is described as above. The conditions noted are these: LIMK1 (TKL), IPI00291702. It counts as binding.
Source text: as §1

The target in test [6] is T6, kinases (kinome) (Homo sapiens, UniProt Q14680).
T6 construct: determined in kinobeads assays with mass spectrometry detection of kinases as described previously; endogenous in cells; host or cells: cell lysate
The test is described as above. It counts as binding. As to conditions: MELK (CAMK), IPI00006471.
Source text: as §1

Test [7] addresses T7, kinases (kinome) (Homo sapiens, UniProt P49840).
T7 construct: determined in kinobeads assays with mass spectrometry detection of kinases as described previously; endogenous in cells; host or cells: cell lysate
Described as above. It is filed as binding. As to conditions: GSK3A (CMGC), IPI00292228.
Source text: as §1

In test [8] the target is T8, kinases (kinome) (Homo sapiens, UniProt P42345).
T8 construct: determined in kinobeads assays with mass spectrometry detection of kinases as described previously; endogenous in cells; host or cells: cell lysate
The test is described as above. It is filed as binding. The conditions noted are these: mTOR (Atypical), IPI00031410; 0.1 μM ranges.
Source text: as §1

For test [9], the target named is T9, kinases (kinome) (Homo sapiens, UniProt Q00534).
T9 construct: determined in kinobeads assays with mass spectrometry detection of kinases as described previously; endogenous in cells; host or cells: cell lysate
The description is as above. As to conditions: CDK6 (CMGC), IPI00023529. It counts as binding.
Source text: as §1

T7 sequence (P49840 whole entry): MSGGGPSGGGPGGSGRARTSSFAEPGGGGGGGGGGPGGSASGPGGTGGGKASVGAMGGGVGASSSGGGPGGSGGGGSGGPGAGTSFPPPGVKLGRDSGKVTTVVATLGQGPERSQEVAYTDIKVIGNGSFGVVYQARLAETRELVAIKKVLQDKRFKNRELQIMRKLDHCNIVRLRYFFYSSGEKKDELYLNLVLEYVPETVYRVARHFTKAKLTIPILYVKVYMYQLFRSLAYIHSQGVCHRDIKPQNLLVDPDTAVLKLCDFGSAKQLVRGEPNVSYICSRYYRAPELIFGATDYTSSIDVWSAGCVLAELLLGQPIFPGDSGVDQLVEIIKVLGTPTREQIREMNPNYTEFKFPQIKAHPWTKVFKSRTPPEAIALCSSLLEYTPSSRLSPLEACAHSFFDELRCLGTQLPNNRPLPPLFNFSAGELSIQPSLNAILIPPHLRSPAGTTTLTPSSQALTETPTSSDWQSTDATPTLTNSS
T5 sequence (P53667 whole entry): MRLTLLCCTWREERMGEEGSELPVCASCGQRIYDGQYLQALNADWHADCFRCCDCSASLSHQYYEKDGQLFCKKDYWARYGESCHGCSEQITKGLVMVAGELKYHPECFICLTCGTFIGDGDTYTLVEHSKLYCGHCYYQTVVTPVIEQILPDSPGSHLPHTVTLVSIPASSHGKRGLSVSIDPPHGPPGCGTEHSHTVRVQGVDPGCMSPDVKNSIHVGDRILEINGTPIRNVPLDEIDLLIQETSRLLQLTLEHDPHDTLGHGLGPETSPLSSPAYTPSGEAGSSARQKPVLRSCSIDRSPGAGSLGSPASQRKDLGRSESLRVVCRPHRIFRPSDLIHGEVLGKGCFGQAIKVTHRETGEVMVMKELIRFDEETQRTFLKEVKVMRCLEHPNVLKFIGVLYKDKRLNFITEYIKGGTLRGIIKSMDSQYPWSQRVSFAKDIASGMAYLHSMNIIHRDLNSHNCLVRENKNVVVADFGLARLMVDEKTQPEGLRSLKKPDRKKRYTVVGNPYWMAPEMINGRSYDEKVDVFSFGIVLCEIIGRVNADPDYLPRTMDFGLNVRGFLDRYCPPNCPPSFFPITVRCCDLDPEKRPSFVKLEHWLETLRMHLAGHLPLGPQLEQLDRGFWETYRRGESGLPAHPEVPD
T2 sequence (Q96RR4 whole entry): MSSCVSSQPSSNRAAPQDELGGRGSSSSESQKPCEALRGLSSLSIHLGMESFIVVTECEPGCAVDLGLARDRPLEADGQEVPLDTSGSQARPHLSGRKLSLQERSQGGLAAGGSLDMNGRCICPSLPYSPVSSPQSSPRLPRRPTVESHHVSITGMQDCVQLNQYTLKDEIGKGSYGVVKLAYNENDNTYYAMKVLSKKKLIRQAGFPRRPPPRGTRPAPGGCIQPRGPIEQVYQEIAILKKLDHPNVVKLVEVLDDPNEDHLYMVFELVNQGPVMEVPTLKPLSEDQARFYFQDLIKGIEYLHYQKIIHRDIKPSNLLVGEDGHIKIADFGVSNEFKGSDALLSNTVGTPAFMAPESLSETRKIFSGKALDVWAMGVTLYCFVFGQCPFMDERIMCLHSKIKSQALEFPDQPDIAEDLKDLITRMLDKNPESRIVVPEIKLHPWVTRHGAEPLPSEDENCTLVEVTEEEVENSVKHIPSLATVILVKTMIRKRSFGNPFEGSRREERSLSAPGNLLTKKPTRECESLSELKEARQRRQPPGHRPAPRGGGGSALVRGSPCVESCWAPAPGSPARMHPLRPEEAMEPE
T4 sequence (Q9Y4K4 whole entry): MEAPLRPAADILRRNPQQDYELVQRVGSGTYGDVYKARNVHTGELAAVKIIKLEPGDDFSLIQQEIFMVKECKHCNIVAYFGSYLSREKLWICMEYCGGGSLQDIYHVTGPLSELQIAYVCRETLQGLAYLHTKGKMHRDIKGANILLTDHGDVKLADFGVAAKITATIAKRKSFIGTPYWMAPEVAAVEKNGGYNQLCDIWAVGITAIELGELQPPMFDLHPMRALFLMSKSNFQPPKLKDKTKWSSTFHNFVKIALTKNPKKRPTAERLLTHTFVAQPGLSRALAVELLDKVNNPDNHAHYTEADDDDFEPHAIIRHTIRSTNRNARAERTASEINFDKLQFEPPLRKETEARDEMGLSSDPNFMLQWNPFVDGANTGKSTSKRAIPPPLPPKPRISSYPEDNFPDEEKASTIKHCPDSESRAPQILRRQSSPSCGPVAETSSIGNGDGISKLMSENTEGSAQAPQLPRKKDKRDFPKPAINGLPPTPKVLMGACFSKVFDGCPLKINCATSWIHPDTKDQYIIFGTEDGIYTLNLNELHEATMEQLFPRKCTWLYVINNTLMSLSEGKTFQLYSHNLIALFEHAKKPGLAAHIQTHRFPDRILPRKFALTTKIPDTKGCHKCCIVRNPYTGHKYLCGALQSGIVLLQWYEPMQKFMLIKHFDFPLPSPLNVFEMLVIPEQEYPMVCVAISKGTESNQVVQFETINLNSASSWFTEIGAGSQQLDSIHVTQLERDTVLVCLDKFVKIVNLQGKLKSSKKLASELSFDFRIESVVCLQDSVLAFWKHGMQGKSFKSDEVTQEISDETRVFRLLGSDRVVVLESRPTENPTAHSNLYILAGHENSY
T6 sequence (Q14680 whole entry): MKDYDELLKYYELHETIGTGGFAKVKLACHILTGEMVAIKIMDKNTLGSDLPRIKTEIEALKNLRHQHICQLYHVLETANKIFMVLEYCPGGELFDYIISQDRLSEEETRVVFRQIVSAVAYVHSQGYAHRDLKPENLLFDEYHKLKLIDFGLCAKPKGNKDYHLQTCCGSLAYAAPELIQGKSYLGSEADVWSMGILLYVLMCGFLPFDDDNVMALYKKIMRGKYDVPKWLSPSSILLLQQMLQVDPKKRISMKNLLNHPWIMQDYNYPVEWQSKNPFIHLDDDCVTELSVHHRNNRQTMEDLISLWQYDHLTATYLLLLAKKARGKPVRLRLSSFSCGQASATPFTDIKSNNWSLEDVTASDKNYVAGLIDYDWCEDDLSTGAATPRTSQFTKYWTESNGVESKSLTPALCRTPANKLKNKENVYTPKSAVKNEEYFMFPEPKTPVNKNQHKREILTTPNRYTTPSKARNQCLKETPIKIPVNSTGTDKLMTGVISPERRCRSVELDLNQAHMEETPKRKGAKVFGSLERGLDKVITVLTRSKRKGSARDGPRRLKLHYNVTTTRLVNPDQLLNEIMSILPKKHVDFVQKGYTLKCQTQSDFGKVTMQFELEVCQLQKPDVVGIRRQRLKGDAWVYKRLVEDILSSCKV
T1 sequence (P48736 whole entry): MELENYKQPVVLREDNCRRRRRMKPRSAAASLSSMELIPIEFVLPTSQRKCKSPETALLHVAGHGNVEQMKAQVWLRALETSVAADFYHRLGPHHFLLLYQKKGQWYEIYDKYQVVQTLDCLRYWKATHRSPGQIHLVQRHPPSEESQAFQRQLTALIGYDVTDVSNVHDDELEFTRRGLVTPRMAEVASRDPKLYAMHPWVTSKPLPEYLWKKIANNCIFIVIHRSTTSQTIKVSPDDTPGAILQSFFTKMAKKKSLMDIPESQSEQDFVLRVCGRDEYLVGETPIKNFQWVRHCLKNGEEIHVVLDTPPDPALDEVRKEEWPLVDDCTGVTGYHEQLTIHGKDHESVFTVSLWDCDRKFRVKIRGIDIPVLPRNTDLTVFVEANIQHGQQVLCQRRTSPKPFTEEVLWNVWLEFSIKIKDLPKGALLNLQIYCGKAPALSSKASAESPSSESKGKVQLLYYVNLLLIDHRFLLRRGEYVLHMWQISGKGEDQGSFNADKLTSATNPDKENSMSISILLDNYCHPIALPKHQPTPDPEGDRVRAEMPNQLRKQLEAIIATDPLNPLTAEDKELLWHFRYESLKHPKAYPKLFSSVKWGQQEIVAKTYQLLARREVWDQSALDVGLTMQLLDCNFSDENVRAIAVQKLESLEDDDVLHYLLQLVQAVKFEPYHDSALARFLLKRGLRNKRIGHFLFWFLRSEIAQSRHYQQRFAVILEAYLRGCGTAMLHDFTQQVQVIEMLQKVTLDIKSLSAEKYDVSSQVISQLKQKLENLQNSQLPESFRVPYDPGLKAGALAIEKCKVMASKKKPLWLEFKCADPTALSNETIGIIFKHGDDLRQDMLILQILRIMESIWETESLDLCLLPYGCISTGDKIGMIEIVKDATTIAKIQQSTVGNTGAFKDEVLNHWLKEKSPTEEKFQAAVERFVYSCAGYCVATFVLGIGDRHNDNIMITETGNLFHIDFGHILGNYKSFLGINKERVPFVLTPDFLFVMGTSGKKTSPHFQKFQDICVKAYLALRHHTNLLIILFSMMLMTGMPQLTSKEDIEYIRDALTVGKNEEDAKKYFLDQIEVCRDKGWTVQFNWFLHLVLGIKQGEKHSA
T9 sequence (Q00534 whole entry): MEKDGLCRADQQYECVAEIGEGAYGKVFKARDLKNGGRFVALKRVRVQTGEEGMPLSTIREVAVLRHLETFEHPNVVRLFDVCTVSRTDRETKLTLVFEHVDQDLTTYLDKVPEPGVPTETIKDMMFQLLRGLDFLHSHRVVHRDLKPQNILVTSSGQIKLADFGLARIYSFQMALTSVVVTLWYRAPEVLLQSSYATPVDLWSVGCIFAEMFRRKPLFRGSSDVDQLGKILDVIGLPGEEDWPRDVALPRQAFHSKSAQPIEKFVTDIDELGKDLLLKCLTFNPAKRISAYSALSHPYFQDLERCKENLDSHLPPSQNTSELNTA

Turning to `C[C@H]1COCCN1c1nc(-c2ccc(NC(=O)N[C@H]3CCC[C@@H]3O)cc2)cc(-c2cc(F)ccc2S(C)(=O)=O)n1` [Example 76, 1-(4-(6-(5-fluoro-2-(methylsulfonyl)phenyl)-2-((S)-3-methylmorpholino)pyrimidin-4-yl)phenyl)-3-((1S,2S)-2-hydroxycyclopentyl)urea], the IC50 on PI3Kγ was no less than 10 µM; in test [1] it was less than 0.1 µM; at kinases (kinome) [2], greater than 10 µM; on kinases (kinome) [3], greater than 10 µM; against kinases (kinome) [4], greater than 10 µM; on kinases (kinome) [5], greater than 10 µM. Further, the IC50 was greater than 10 µM at kinases (kinome) [6], greater than 10 µM at kinases (kinome) [7], 0.1 to 0.2 µM at kinases (kinome) [8] and greater than 10 µM at kinases (kinome) [9].
For the molecule `C[C@H]1COCCN1c1cc(-c2ccccc2S(C)(=O)=O)nc(-c2ccc(NC(=O)NC3CC3)cc2)n1` [Example 6, (S)-1-cyclopropyl-3-(4-(4-(3-methylmorpholino)-6-(2-(methylsulfonyl)phenyl)pyrimidin-2-yl)phenyl)urea], the IC50 on PI3Kγ is no less than 10 µM; in test [1], less than 0.1 µM; on kinases (kinome) [2], greater than 10 µM; at kinases (kinome) [3], greater than 10 µM; at kinases (kinome) [4], greater than 10 µM; against kinases (kinome) [5] it was greater than 10 µM. Further, the IC50 at kinases (kinome) [6] is greater than 10 µM; on kinases (kinome) [7], greater than 10 µM; on kinases (kinome) [8] it was 0.1 to 0.2 µM; against kinases (kinome) [9] it was greater than 10 µM.
With `C[C@H]1COCCN1c1cc(-c2ccccn2)nc(-c2ccc(NC(=O)NCCO)cc2)n1` [Example 43, (S)-1-(2-hydroxyethyl)-3-(4-(4-(3-methylmorpholino)-6-(pyridin-2-yl)pyrimidin-2-yl)phenyl)urea], the IC50 at PI3Kγ was no less than 10 µM; in test [1] it was less than 0.1 µM; against kinases (kinome) [2], greater than 10 µM; on kinases (kinome) [3], greater than 10 µM; against kinases (kinome) [4], greater than 10 µM; against kinases (kinome) [5], greater than 10 µM. The IC50 at kinases (kinome) [6] was greater than 10 µM; at kinases (kinome) [7], greater than 10 µM; on kinases (kinome) [8] it was 0.1 to 0.2 µM; against kinases (kinome) [9], greater than 10 µM.
For `C[C@H]1COCCN1c1nc(-c2ccc(NC(=O)NC3CC3)cc2)cc(-c2cc(F)ccc2S(C)(=O)=O)n1` [Example 40, (S)-1-cyclopropyl-3-(4-(6-(5-fluoro-2-(methylsulfonyl)phenyl)-2-(3-methylmorpholino)pyrimidin-4-yl)phenyl)urea], the IC50 at PI3Kγ was no less than 10 µM; in test [1], less than 0.1 µM; against kinases (kinome) [2] it was greater than 10 µM; against kinases (kinome) [3], greater than 10 µM; at kinases (kinome) [4], greater than 10 µM; at kinases (kinome) [5] it was greater than 10 µM. Moreover, the IC50 against kinases (kinome) [6] is greater than 10 µM; against kinases (kinome) [7], greater than 10 µM; against kinases (kinome) [8], 0.1 to 0.2 µM; against kinases (kinome) [9], greater than 10 µM.
